Assays:
[1] = test system: cyclophosphamide treated mice; experiment: Regeneration of neutrophils in cyclophosphamide-treated mice; type: in vivo; details: for neutrophil recovery versus saline treated mice: 5 days; for ANC after treatment was stopped: count on Day 13; for Day on which normal levels of absolute neutrophil counts (ANC) were reached: saline treated mice Day 7
Procedure: In these studies, mice were injected intraperitoneally with a sublethal dose of 220 mg/kg cyclophosphamide (Day 1). […] After 72 hours (Day 3) mice were divided into 3 groups. […] G-CSF was used at 0.04 ug/dose (4 μg/kg/day) which is the dose frequently used in published reports studying the G-CSF effects in mice and is also the equivalent dose used in cancer patients. All administrations were performed twice daily (b.i.d.) for 5 consecutive days or as indicated. Blood samples were taken from individual mice on Day 4–8, and in some experiments on Days 13 or 17. At each time pont four or five test animals were sampled. Total and differential white blood cell counts of Gimsa-stained blood smears were performed.

[2] = test system: BALB/c mice; experiment: Stimulation of hematopoiesis in the spleen of normal mice (splenocyte colony assay); type: in vivo; details: twice daily for 5 days, subcutaneous injection or oral gavage
Procedure: On the sixth day the animals were sacrificed and their spleens were excised using sterile procedures. The spleens were disrupted to produce single cell suspensions which were subsequently treated with a solution of Tris ammonium chloride (pH 7.2) to lyse erythrocytes. The resulting splenocyte populations were in a hemocytometer and resuspended at […] in Iscove's Modified Eagles medium (IMDM) supplemented with 2% heat inactivated fetal calf serum. 0.3 mL of each splenocyte solution was added to 3 mL of Methocult™GF M3434 (Stem Cell Technologies, Vancouver, BC, Canada), a methylcellulose medium containing recombinant cytokines used for colony assays of murine progenitor cells. The medium was vigorously mixed and then 1.1 mL of the mixture was placed in duplicate onto sterile 35 mm diameter culture dishes, resulting in 5×10^5 splenocytes/plate. The plated cells were incubated at 37° C. under humidified conditions in 95% air/5% CO2 for 7 days. CFU-E were enumerated as per the manufacturers specifications after 2 days, while BFU-E, CFU-GM and CFU-GEMM were enumerated after 7 days. For each mouse, the absolute CFU/spleen were calculated using the total splenocyte count determined in the hemocytometer. The data shown in FIG. 9 represents the mean±SD CFU/spleen from 3 mice in each dosing group.

[3] = test system: human bone marrow CD34+ cells (committed progenitor cells); experiment: 2 week semi-solid (methylcellulose) colony (CFU) assay; type: cell-based
Description: Hematopoiesis is sustained by a pool of hematopoietic stem cells (HSCs) that can self-renew and differentiate into hematopoietic progenitor cells (HPCs). HPCs are committed to specific lineages which can be identified based on their colony morphology when grown in semi-solid media in vitro, typically over a 2 week period. The colonies grown in the semi-solid colony assay are functionally defined as colony- or burst-forming units and include BFU-E and CFU-E (cells committed to the erythroid lineage), CFU-GM (cells committed to the granulocytic/monocytic lineage), BFU-MK and CFU-MK (cells committed to the megakaryocyte lineage) and CFU-GEMM (multipotent progenitors).

[4] = test system: human CD34+ cells (primitive hematopoietic progenitor cells) on stromal cell layer; experiment: Long-Term Culture (LTC) assay followed by semi-solid colony assay; type: cell-based
Description: An assay to evaluate the effect of a compound or of growth factors on PHPCs was first described by Dexter (Dexter T. M. et al, J. Cell. Physiol. 91:335–344 (1977)), and combines the Long-Term Culture (LTC) with the semi-solid colony assay. LTC is initiated over a pre-formed stromal cell layer which provides the necessary hematopoietic growth factors. It has been used extensively for the in vitro examination of murine and human hematopoiesis and to evaluate the ability of test compounds to generate LTC-ICs.
For the LTC assays, CD34^+ cells were isolated by positive selection from human bone marrow cells, apheresed peripheral blood or umbilical cord blood using a MAC separation system. To establish a stromal feeder layer, human bone marrow cells were cultured in Myelocult long term culture medium for 2 weeks. […] Medium and PT-100 was exchanged every three days thereafter. At the end of the culture period the culture was assayed for progenitor cells by plating in semi-solid medium (methylcellulose) supplemented with growth factors (Stem Cell Factor, GM-CSF, IL-3 and Erythropoietin).
The total number of myeloid, erythroid, blast forming and multilineage clonogeneic progenitors (colonies CFU-GM, CFU-E, BFU-E and CFU-GEMM, respectively) were determined after 14 days in methylcellulose culture.

[5] = test system: human bone marrow stromal cells; experiment: Production of G-CSF by human bone marrow stromal cells; type: cell-based; details: 10^−5 M PT-100, culture media collected on day 1
Procedure: Mononuclear cells were purified from bone marrow and cultured long-term culture medium, (Stem Cell Technologies, Inc., Vancouver, B.C.) for 2 weeks, with a single feeding of fresh medium after 1 week. […] Culture media were collected on day 1. Supernatants were assayed for human G-CSF using a Quantikine high sensitivity immuno-assay kit (R+D Systems, Minneapolis, Minn.).

[6] = test system: human bone marrow CD34+ cells (committed progenitor cells); details: stated as previously shown; cited from earlier work
[7] = test system: human CD34+ cells (primitive hematopoietic progenitor cells) on stromal cell layer; details: cited from earlier work

CC(C)[C@H](N)C(=O)N1CCC[C@H]1B(O)O [PT-100, valine-prolineboronic acid]
neutrophil recovery over saline ([1]; 0.1 μg/b.i.d. oral gavage, 5 consecutive days from Day 3): did not significantly enhance neutrophil recovery over saline
neutrophil recovery versus saline treated mice ([1]; 1 μg/b.i.d. s.c.): did not show much effect
ANC after treatment was stopped ([1]; 2 μg/b.i.d. by gavage for 5 days): decreased to normal counts by Day 13
neutrophil regeneration during the treatment period, PT-100 versus G-CSF ([1]; 2 μg/b.i.d. by gavage, 5 consecutive days from Day 3): stimulated neutrophil regeneration to a similar level
Day on which normal levels of absolute neutrophil counts (ANC) were reached ([1]; 2 μg/b.i.d. oral gavage): 5 days
Day on which normal levels of absolute neutrophil counts (ANC) were reached ([1]; 5 μg/b.i.d. oral gavage): 5 days
neutrophil recovery versus saline treated mice ([1]; 5 μg/b.i.d. s.c.): accelerated
neutrophil recovery versus saline treated mice ([1]; 10 μg/b.i.d. s.c.): accelerated
neutrophil recovery versus saline treated mice ([1]; 20 μg/b.i.d. s.c.): accelerated
rate of neutrophil recovery with additional administration for 2 or 3 days ([1]; gavage b.i.d. for 2 or 3 days starting Day 3): increased the rate of recovery even further
reconstitution of neutrophils after one day of administration ([1]; gavage b.i.d. for 1 day starting Day 3 (5, 2 or 1 μg/b.i.d.)): accelerated reconstitution of neutrophils over saline treated animals
rate of neutrophil recovery or ANC with 4 or 5 days versus 3 day administration ([1]; gavage b.i.d., total of 4 or 5 days): does not significantly increase
effect of additional administration on Days 5, 6 and 7 on ANC ([1]; oral gavage b.i.d.): caused a further increase in ANC
neutrophil recovery, twice daily versus once per day administration ([1]; s.c., five day period from Day 3, both doses tested): faster rate of neutrophil recovery to higher neutrophil levels
hematopoiesis in spleen (CFU/spleen: CFU-E, BFU-E, CFU-GM, CFU-GEMM) [2]: stimulated hematopoiesis for all progenitor colony types tested
differentiation of committed progenitor cells (CFU-E, CFU-GM, CFU-GEMM, BFU-E colonies) ([3]; human bone marrow CD34+ cells, 4 h pre-incubation, 14 days in methylcellulose with sub-optimal growth factors): did not stimulate differentiation
generation of CFUs in the 2 week semi-solid assay ([3]; human bone marrow, apheresed peripheral blood or umbilical cord blood cells): did not stimulate the generation of CFUs
number of 4 and 5 week LTC-ICs ([4]; CD34+ cells from apheresed peripheral blood or umbilical cord blood, 30 days on irradiated stromal cells): increased
growth of very early progenitor cells in LTC assays ([4]; all three cell sources (bone marrow, apheresed peripheral blood, umbilical cord blood), LTC-ICs at 4, 5 and 6 weeks): significantly increased
number of clonogeneic progenitors able to form colonies in semi-solid medium ([4]; human bone marrow culture, 4 week LTC assay): increased, in a dose dependent manner
production of G-CSF by cultured stromal cells [5]: stimulates production of G-CSF

B1: G-CSF: granulocyte colony stimulating factor, currently used to accelerate neutrophil recovery in cancer patients undergoing chemotherapy (protein, UniProt P09919 31-207, looked up)
Granulocyte …: TPLGPASSLPQSFLLKCLEQVRKIQGDGAALQEKLVSECATYKLCHPEELVLLGHSLGIPWAPLSSCPSQALQLAGCLSQLHSGLFLYQGLLQALEGISPELGPTLDTLQLDVADFATTIWQQMEELGMAPALQPTQGAMPAFASAFQRRAGGVLVASHLQSFLEVSYRVLRHLAQP
ANC after treatment was stopped ([1]; 0.04 μg/b.i.d. s.c. for 5 days): decreased to normal counts by Day 13
neutrophil regeneration during the treatment period, PT-100 versus G-CSF ([1]; 0.04 μg/b.i.d. subcutaneous injections, 5 consecutive days from Day 3): stimulated neutrophil regeneration to a similar level
CFU formation in the 2 week semi-solid assay [6]: stimulate CFU formation
effect on growth of early human hematopoietic progenitor cells [7]: not affected

Reference: US7067489B2, “Hematopoietic stimulation” (Point Therapeutics, Inc., priority 1998, dated 2006)
